Test results taken from the METLIN SMRT retention time set (Domingo-Almenara et al. 2019).

Assay: gradient 5% acetonitrile 3 min, to 50% in 2 min, to 85% in 15 min, held 3 min, 100 µL/min
Conditions: column: Zorbax Extend-C18 2.1 x 50 mm; eluents: water / acetonitrile, 0.1% formic acid
Outline: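 Standards, all pure, were combined into mixtures of ~100 molecules and run at 100 μL/min on a Zorbax Extend-C18 column (2.1 × 50 mm, 1.8 μm) with water and acetonitrile, each containing 0.1% formic acid. A coupled quadrupole time-of-flight mass spectrometer operated in positive and negative ionization mode. Retention time values come from computationally picked adduct peaks, each inspected manually.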
In the case of `Fc1ccc(Cn2cc(-c3noc(C4CCCC4)n3)nn2)cc1`, the RP-LC retention time is reported as 991 s. For `Nc1nc(SCC(=O)Nc2ccc(F)c(Cl)c2)n[nH]1`, the RP-LC retention time was 621 s. `Cc1cc(C)c(CNC(=O)c2ccc3c(c2)CC(=O)N3C)c(C)c1` gave an RP-LC retention time of 830 s. In the case of `CC(C)c1ccc2c(c1)-c1ccccc1S(=O)(=O)N2CC(=O)NCc1ccncc1`, the RP-LC retention time is reported as 699 s. `CC(=O)Nc1cc(C(=O)NCCN(C)C)ccc1Sc1ccc(Cl)cc1` showed an RP-LC retention time of 589 s. Work on `O=C(Cc1ccc(F)cc1)NCCNc1cc(-n2cccn2)ncn1` yielded an RP-LC retention time of 652 s. `O=C(NC1CCCc2ccccc21)c1cc2sccc2n1Cc1ccc(Cl)cc1` (stereo unspecified) gave an RP-LC retention time of 1320 s. Compound `CCc1nc(-c2csc(S(=O)(=O)N3CCC(C(=O)Nc4ccc(C)cc4)CC3)c2)no1` has an RP-LC retention time of 1020 s. Compound `Cn1nc(-c2nnc(-c3ccccc3F)o2)c2c1CCN(S(=O)(=O)c1ccc(F)cc1)C2` has an RP-LC retention time of 903 s. Compound `O=C(CN1c2ccc(F)cc2-c2ccccc2S1(=O)=O)Nc1cccnc1` has an RP-LC retention time of 681 s. In the case of `COc1ccc(-c2cc(=O)c3c(O)c(OC)c(OC)cc3o2)cc1O`, the RP-LC retention time is reported as 906 s. Compound `Cc1ccc(NC(=O)C2CCN(S(=O)(=O)c3ccc4c(c3)sc(=O)n4C)CC2)cc1Cl` has an RP-LC retention time of 978 s. For `Cc1ccc(NC(=O)COc2cc(C)nc(N3CCN(c4ccccc4)CC3)n2)cc1`, the RP-LC retention time was 852 s. `CCC1CN(C(=O)N2CCC(C(=O)NCCCN3CCN(C)CC3)CC2)c2ccccc2O1` (stereo unspecified) showed an RP-LC retention time of 592 s. In the case of `Cn1cc(-c2ccncc2)cc1C(=O)NCc1ccc(F)cc1`, the RP-LC retention time is reported as 640 s. `COc1ccc(CNC(=O)C(=O)NCC(c2ccc3c(c2)OCO3)N2CCOCC2)cc1` (stereo unspecified) gave an RP-LC retention time of 643 s. In the case of `Cc1ccc(CNC(=O)Cn2c(N3CCOCC3)nc(C)cc2=O)cc1`, the RP-LC retention time is reported as 647 s. `CCN1C(=O)CCc2cc(NS(=O)(=O)c3ccc(F)c(C)c3)ccc21` showed an RP-LC retention time of 834 s. `O=C(c1ccco1)N1CC(Oc2cccc(-c3nc(-c4ccccc4)no3)c2)C1` showed an RP-LC retention time of 1120 s. Compound `CCOC(=O)c1noc2ncnc(NCC3CCN(Cc4ccccc4F)CC3)c12` has an RP-LC retention time of 661 s. In the case of `COCC(=O)N1CC(c2nc(-c3ccc(F)cc3)no2)C2(CCOCC2)C1` (stereo unspecified), the RP-LC retention time is reported as 731 s. `Cn1c(N2CCCC(C(=O)NCCN3CCN(c4ccccc4)CC3)C2)cc(=O)n(C)c1=O` (stereo unspecified) gave an RP-LC retention time of 589 s. Work on `Cc1ccc(C2=NC3(CCN(C(=O)c4c[nH]c5ccccc45)CC3)ON2)cc1` yielded an RP-LC retention time of 769 s. In the case of `CC1=C(c2ccc(F)cc2)S(=O)(=O)N=C1N1CCCN(C(=O)C2CC2)CC1`, the RP-LC retention time is reported as 734 s. With `COc1cccc([C@@]2(O)CCCC[C@H]2CN(C)C)c1` the RP-LC retention time was 591 s. `Cc1ccc(N2CC(c3nc(-c4ccc5c(c4)nc(C)c(=O)n5C4CCCC4)no3)CC2=O)cc1` (stereo unspecified) gave an RP-LC retention time of 1100 s. Work on `O=C1CC2(CCN(C(=O)C3CC(=O)N(c4ccc(Cl)cc4)C3)CC2)Oc2ccccc21` (stereo unspecified) yielded an RP-LC retention time of 831 s. Work on `CCc1nnc(-c2cn(CC(=O)Nc3c(Cl)cc(OC)cc3OC)c3ccccc23)o1` yielded an RP-LC retention time of 909 s. Work on `O=C(Nc1ccc(C(F)(F)F)cc1)c1cn(CC(O)c2ccccc2)nn1` (stereo unspecified) yielded an RP-LC retention time of 581 s. With `Cc1nc(-c2noc(-c3ccccc3)n2)cn1CC(=O)N1CCc2ccccc21` the RP-LC retention time was 860 s. Work on `CCc1ccc(S(=O)(=O)c2cnc(N3CCN(c4ccccc4)CC3)nc2N)cc1` yielded an RP-LC retention time of 1140 s. `COC(=O)c1[nH]c2c(c1C)C(=O)CC(c1ccccc1)C2` (stereo unspecified) showed an RP-LC retention time of 860 s. `CC(=O)CC(c1ccccc1)C1C(=O)Oc2ccccc2C1=O` (stereo unspecified) showed an RP-LC retention time of 1000 s. `CCC1CN(C(=O)N2CCC(C(=O)NCCCN3CCCC3=O)CC2)c2ccccc2O1` (stereo unspecified) gave an RP-LC retention time of 709 s. For `O=C(Cc1cccs1)N1CCc2cc(-c3ccno3)ccc21`, the RP-LC retention time was 919 s. Compound `Cc1ccc(-c2csc(NC(=O)C3CCC3)n2)cc1C` has an RP-LC retention time of 1100 s. `CCn1c(N2CCCC(C(=O)NCc3ccc(F)cc3)C2)cc(=O)n(C)c1=O` (stereo unspecified) gave an RP-LC retention time of 776 s. Compound `Clc1ccccc1CNc1nnc(-c2nc(C3CC3)no2)c2ccccc12` has an RP-LC retention time of 1010 s. For `O=C(CC1CCN(S(=O)(=O)c2ccc(Cl)s2)CC1)N1CCCCC1`, the RP-LC retention time was 946 s. With `CCN1c2ccc(F)cc2C(=O)NC12CCN(C(=O)Cc1ccccc1C)CC2` the RP-LC retention time was 846 s. `Cc1nc(Cn2cccc2C(=O)NCc2ccc(Br)cc2)no1` showed an RP-LC retention time of 942 s. For `CCOC(=O)CCNC(=O)N1CCN(Cc2nnnn2-c2ccc(F)c(F)c2)CC1`, the RP-LC retention time was 688 s. `Cc1cc(N2C=C(C#N)S(=O)(=O)c3ccc(F)cc32)ccc1Br` gave an RP-LC retention time of 979 s. `COCC(=O)N1CCC2(CC1)NC(=O)c1ccccc1O2` gave an RP-LC retention time of 610 s. Compound `Cc1cc(C)c2c(N3CCSCC3)nc(C(=O)NCC(C)C)nc2n1` has an RP-LC retention time of 658 s. `Cc1noc([C@@H]2CN(S(=O)(=O)c3cccs3)C[C@H]2C(N)=O)n1` gave an RP-LC retention time of 658 s. For `O=C(Nc1cccc(Cl)c1)c1nn2c(C(F)(F)F)cc(-c3ccco3)nc2c1Cl`, the RP-LC retention time was 1230 s. Work on `CCOc1nc2ccccc2nc1N1CCCC(C(=O)Nc2cc(C)cc(C)c2)C1` (stereo unspecified) yielded an RP-LC retention time of 1320 s. With `CC(NC(=O)CCc1c(-c2ccc(Br)cc2)nc2ccccn12)c1ccccc1` (stereo unspecified) the RP-LC retention time was 770 s. `CCc1noc(NC(C)=O)c1-c1ccc(C)c(S(=O)(=O)N2CCCc3ccccc32)c1` showed an RP-LC retention time of 953 s. With `CCCN1C(=O)COc2ccc(-c3noc(-c4ccc(OC)cc4OC)n3)cc21` the RP-LC retention time was 1100 s. `O=C(c1nccc2ccccc12)N1C[C@@H](CO)[C@H](c2ccccn2)C1` showed an RP-LC retention time of 578 s. In the case of `CC(=O)N(C1CCOCC1)C1CCN(C(=O)c2ccc(C)s2)CC1`, the RP-LC retention time is reported as 673 s. For `O=C(O)c1ccc2c(ccn2Cc2ccccc2)c1`, the RP-LC retention time was 843 s. Compound `CN1C(=O)c2cccn2CC1CNC(=O)Nc1ccc2c(c1)OCCO2` (stereo unspecified) has an RP-LC retention time of 624 s. In the case of `CCOc1ccc(CNC(=O)C2CCCN(c3nccnc3Oc3ccc(C)cc3)C2)cc1OCC` (stereo unspecified), the RP-LC retention time is reported as 1070 s. `CCc1nc2cc(-c3noc(/C=C/c4ccc(OC)c(OC)c4)n3)ccc2o1` showed an RP-LC retention time of 1140 s. With `CC1CCN(S(=O)(=O)c2ccc3nn(Cc4ccc(Cl)cc4)c(=O)n3c2)CC1` the RP-LC retention time was 819 s. Work on `COc1ccc(-c2ccc(=O)n(Cc3nc(-c4ccc(Cl)c(F)c4)no3)n2)cc1` yielded an RP-LC retention time of 1080 s. Work on `CCOC(=O)Cc1ccc(NC(=O)N2CCc3nc[nH]c3C2)cc1` yielded an RP-LC retention time of 588 s. With `CCn1c(=O)c2ccccc2n(Cc2nc(-c3ccc(Cl)c(F)c3)no2)c1=O` the RP-LC retention time was 1140 s. `CCc1nc2c(NC(=O)c3ccc(C)c(C)c3)cccn2n1` gave an RP-LC retention time of 922 s. For `COc1cccc(-c2nc(-c3ccc4c(c3)ncn4CCN3CCCCC3)no2)c1`, the RP-LC retention time was 657 s. Work on `COc1ccc(CCc2nc3nccc(-c4ccc(OC)cc4F)n3n2)cc1` yielded an RP-LC retention time of 941 s. `O=C(NCc1ccccn1)C1CCN(S(=O)(=O)c2cc(C(=O)N3CCCCCC3)cs2)CC1` showed an RP-LC retention time of 638 s. In the case of `Cc1nc2c(C(=O)N3CCN(c4ccccn4)CC3)cnn2c(C)c1Cc1ccccc1Cl`, the RP-LC retention time is reported as 697 s.
